Usually IC50 stands for the concentration needed to halve the response being measured.

The values below come from ChEMBL document CHEMBL4304823, “Photo-induced synthesis of Axinastatin 3 analogs, the secondary structures and their in vitro antitumor activities” (Bioorg Med Chem Lett, 2019).

One data set concerns L929. The data set is described as follows: Cytotoxicity against mouse L929 cells assessed as reduction in cell viability measured after 48 hrs. Format: cell-based. To be noted: for IC50: Mus musculus, L929, 48 h; for Activity: mouse, l929, 48 h.
For a further data set, the system named is HeLa. The data set can be described thus: Antitumour activity against human HeLa cells assessed as reduction in cell viability by MTT assay. Format: functional, cell-based. (In general: Formazan colour is commonly taken as a measure of viable cells.)
In data set [1] the test system is HepG2. The data set is described as follows: Antitumour activity against human HepG2 cells assessed as reduction in cell viability incubated for 48 hrs by MTT assay. The class given is functional, cell-based. To be noted: HepG2, 48 h.
Data set [2] concerns HepG2. The data set is described as follows: Induction of cell death in human HepG2 cells at 40 uM measured after 48 hrs by fluorescence inversion microscopy analysis. The class given is functional, cell-based.
Data set [3] deals with HepG2. The data set can be described thus: Induction of cell morphological changes in human HepG2 cells assessed as decrease in cell number at 40 uM measured after 0 to 48 hrs by fluorescence inversion microscopy analysis. The class given is functional, cell-based.
In data set [4] the test system is HepG2. The data set can be described thus: Induction of cell morphological changes in human HepG2 cells assessed as change in normal spindle cell shape to rounder cells with weak adhesion ability at 40 uM measured after 0 to 48 hrs by fluorescence inversion microscopy analysis. The class given is functional, cell-based.

Values after ≈ are worked out from the molar mass of the structure shown. Active and inactive are the calls of the source. The calls are words filed in the database; no cut-off is given here. Where only a bound is given, the exact number is not on record here.

For the compound `CC[C@H](C)[C@@H]1NC(=O)CN2C(=O)c3ccccc3[C@]2(O)CN(Cc2ccccc2)C(=O)[C@@H]2CCCN2C(=O)[C@H](C(C)C)NC(=O)[C@@H]2CCCN2C(=O)[C@H](CC(C)C)NC1=O`, the IC50 amounted to 86.2 µg/mL (≈ 104 µM) in the data set with L929, 89 µg/mL (≈ 107 µM) in the data set on HeLa and 72.6 µg/mL (≈ 87.6 µM) in the data set with HepG2 [1]. Also, in the data set on L929, the Activity entry is given as “Dose-dependent effect”.

As for `CC[C@H](C)[C@@H]1NC(=O)CN2C(=O)c3ccccc3[C@@]2(O)CN(Cc2ccccc2)C(=O)[C@H]2CCCN2C(=O)[C@H](C(C)C)NC(=O)[C@H]2CCCN2C(=O)[C@H](CC(C)C)NC1=O`, the result in the data set on HepG2 [2], in the data set with HepG2 [3] and in the data set on HepG2 [4] was Active.

With `CCNC(=O)CC[C@@H]1NC(=O)CN2C(=O)c3ccccc3[C@@]2(O)CN(Cc2ccccc2)C(=O)[C@H]2CCCN2C(=O)[C@H](C(C)C)NC(=O)[C@H]2CCCN2C(=O)[C@H](CC(C)C)NC(=O)[C@H]([C@@H](C)CC)NC1=O`, the IC50 in the data set with L929 was 61.1 µg/mL (≈ 62 µM); with HeLa, 280 µg/mL (≈ 285 µM); in the data set on HepG2 [1] it was 64.5 µg/mL (≈ 65.6 µM). Besides, the Activity result with L929 is on record as “Dose-dependent effect”.

Take `CC[C@H](C)[C@@H]1NC(=O)CN2C(=O)c3ccccc3[C@@]2(O)CN(Cc2ccccc2)C(=O)[C@@H]2CCCN2C(=O)[C@H](C(C)C)NC(=O)[C@@H]2CCCN2C(=O)[C@H](CC(C)C)NC1=O`: the IC50 is 50.5 µg/mL (≈ 61 µM) in the data set on L929, 41.2 µg/mL (≈ 49.7 µM) in the data set with HeLa and 38.4 µg/mL (≈ 46.4 µM) with HepG2 [1]. Besides, the Activity result with L929 was “Dose-dependent effect”.

As to `CC(=O)O[C@H]1C(=O)[C@@]2(C)[C@H]([C@H](OC(=O)c3ccccc3)[C@]3(O)C[C@H](OC(=O)[C@H](O)[C@@H](NC(=O)c4ccccc4)c4ccccc4)C(C)=C1C3(C)C)[C@]1(OC(C)=O)CO[C@@H]1C[C@@H]2O` [PACLITAXEL], the IC50 is 33 µg/mL (≈ 38.6 µM) in the data set with L929, over 400 µg/mL in the data set on HeLa and 102 µg/mL (≈ 119 µM) in the data set with HepG2 [1].
